Source: paper PMC9907720 (Antiviral research, 2022)
Read-outs that look alike come from different tables or passages of the source.

Legend:
CMV IE1 protein = test: Western blot of IE1 protein in AD169^R-infected NHDFs; assay type: cell-based, Human cytomegalovirus; settings: AD169^R-infected NHDF, 24hpi; MBX-4992 1-10 μM, ganciclovir 5 μM, convallotoxin 0.01 μM
[1] = system: AD169^R and TB40/E strains; test: Infectivity assay, AD169^R and TB40/E in NHDF and ARPE-19; assay type: cell-based, Human cytomegalovirus; settings: read-out: IC50 values (range), NHDF and ARPE-19 cells, 24hpi
AD169^R [2] = test: Cell pre-treatment wash / no wash infection assay; assay type: cell-based, Human cytomegalovirus; settings: cells pre-treated, AD169^R 30 mins at 4°C; MBX-4992 10μM, heparin 50μg/ml; 24hpi
AD169^R [3] = test: Virus pre-incubation wash / no wash infection assay; assay type: cell-based, Human cytomegalovirus; settings: MBX-4992 pre-incubated with virus, 24hpi
EBV Akata = test: Herpes virus panel, EBV qPCR; assay type: cell-based, Epstein-Barr virus; settings: Akata cells
GpCMV 22122 = test: Herpes virus panel, GpCMV qPCR; assay type: cell-based, Guinea pig cytomegalovirus; settings: GpCMV 22122, GP Lung cells
HCMV AD169 = test: Herpes virus panel, HCMV AD169 CPE; assay type: cell-based, Human cytomegalovirus; settings: HCMV AD169, HFF
HCMV GDGr K17 (GCV^R) = assay type: cell-based, Human cytomegalovirus; settings: HFF, CPE
HHV-6B Z29 = test: Herpes virus panel, HHV-6B qPCR; assay type: cell-based, Human herpes virus 6B; settings: HHV-6B Z29, MOLT-3, qPCR
HHV-8 BCBL-1 = test: Herpes virus panel, HHV-8 qPCR; assay type: cell-based, Human herpes virus 8; settings: HHV-8 BCBL-1, BCBL-1 cells
HSV-1 E-377 = test: Herpes virus panel, HSV-1 CPE; assay type: cell-based, Herpes simplex virus 1; settings: HSV-1 E-377, HFF
HSV-2 G = test: Herpes virus panel, HSV-2 CPE; assay type: cell-based, Herpes simplex virus 2; settings: HFF
MCMV Smith = test: Herpes virus panel, MCMV qPCR; assay type: cell-based, Murine cytomegalovirus; settings: MEF
VZV Ellen = test: Herpes virus panel, VZV CPE; assay type: cell-based, Varicella-Zoster virus; settings: HFF
hepatitis B = test: Other viral pathogens, hepatitis B; assay type: cell-based; settings: data not shown
dengue = test: Other viral pathogens, dengue; assay type: cell-based; settings: data not shown
influenza A H1N1 = test: Other viral pathogens, influenza A H1N1; assay type: cell-based; settings: data not shown
respiratory syncytial = test: Other viral pathogens, respiratory syncytial virus; assay type: cell-based; settings: data not shown
yellow fever = assay type: cell-based
Zika virus = test: Other viral pathogens, Zika virus; assay type: cell-based; settings: data not shown
Akata = Akata cells, EBV assay
GP Lung = GP Lung cells, GpCMV assay
MOLT-3 = settings: MOLT-3, HHV-6B assay
BCBL-1 = BCBL-1 cells, HHV-8 assay
MEF = settings: MCMV assay
AD169^IE2-YFP = test: High-content screening / dose response assay, AD169^IE2-YFP infection of HFF; assay type: cell-based, Human cytomegalovirus; settings: read-out: anti-CMV activity IC50, secondary validation assays
AD169^R [4] = test: Infectivity assay, AD169^R infection of NHDF; assay type: cell-based, Human cytomegalovirus; settings: AD169^R-infected NHDF, 24hpi
AD169^R [5] = test: Infectivity assay, AD169^R infection of ARPE-19; assay type: cell-based, Human cytomegalovirus; settings: AD169^R-infected ARPE-19, 24hpi
TB40/E [6] = test: Infectivity assay, TB40/E infection of NHDF; assay type: cell-based, Human cytomegalovirus; settings: TB40/E-infected NHDF, 24hpi
TB40/E [7] = test: Infectivity assay, TB40/E infection of ARPE-19; assay type: cell-based, Human cytomegalovirus; settings: TB40/E-infected ARPE-19, 24hpi

**Q.** Which “IE1 expression (Western blot)” value (CMV IE1 protein) does the source give for `Nc1nc(O)c2ncn(COC(CO)CO)c2n1` [GCV, ganciclovir] here?
**A.** did not impact IE1 expression

**Q.** How did the IC50 [1] turn out when `Cc1nc(Nc2ccc(NC(=O)c3ccco3)cc2)cc(N2CCCC2)n1` [MBX-4992] was run?
**A.** 1.9 to 4.8 µM

**Q.** What about the “IE1 expression (Western blot)” value (CMV IE1 protein) of the same compound?
**A.** decrease in IE1 expression

**Q.** And the “virus infection, compound present during infection” value (AD169^R [2])?
**A.** significantly inhibited virus during infection

**Q.** What about the “decrease of virus infection, virus pre-incubated then washed” value (AD169^R [3]) of the same compound?
**A.** ~ 25%

**Q.** What about the IC50 (EBV Akata) of the same compound?
**A.** 30.9 µM

**Q.** What about the IC50 (GpCMV 22122) of the same compound?
**A.** > 30 µM

**Q.** What about the IC50 (HCMV AD169) of the same compound?
**A.** 1.7 µM

**Q.** What about the IC50 (HCMV GDGr K17 (GCV^R)) of the same compound?
**A.** 1.8 µM

**Q.** And the IC50 (HHV-6B Z29)?
**A.** 43.7 µM

**Q.** And the IC50 (HHV-8 BCBL-1)?
**A.** 10 µM

**Q.** What about the IC50 (HSV-1 E-377) of the same compound?
**A.** > 30 µM

**Q.** And the IC50 (HSV-2 G)?
**A.** > 150 µM

**Q.** And the IC50 (MCMV Smith)?
**A.** 4.5 µM

**Q.** And the IC50 (VZV Ellen)?
**A.** > 30 µM

**Q.** And the antiviral activity (hepatitis B)?
**A.** did not exhibit activity

**Q.** And the antiviral activity (dengue)?
**A.** did not exhibit activity

**Q.** And the antiviral activity (influenza A H1N1)?
**A.** did not exhibit activity

**Q.** What about the antiviral activity (respiratory syncytial) of the same compound?
**A.** did not exhibit activity

**Q.** And the antiviral activity (yellow fever)?
**A.** did not exhibit activity

**Q.** What about the antiviral activity (Zika virus) of the same compound?
**A.** did not exhibit activity

**Q.** What about the CC50 (Akata) of the same compound?
**A.** > 100 µM

**Q.** And the CC50 (GP Lung)?
**A.** 119 µM

**Q.** And the CC50 (HFF; HCMV AD169 assay)?
**A.** > 150 µM

**Q.** And the CC50 (HFF; HSV-1 assay)?
**A.** 60.6 µM

**Q.** And the CC50 (HFF; HSV-2 assay)?
**A.** > 150 µM

**Q.** What about the CC50 (HFF; VZV assay) of the same compound?
**A.** 139 µM

**Q.** What about the CC50 (MOLT-3) of the same compound?
**A.** > 100 µM

**Q.** What about the CC50 (BCBL-1) of the same compound?
**A.** > 100 µM

**Q.** What about the CC50 (MEF) of the same compound?
**A.** > 150 µM

**Q.** `Cc1nc(Nc2ccc(NC(=O)c3ccco3)cc2)cc(-n2cccn2)n1` [MBXC-4302] was tested. Which IC50 (AD169^IE2-YFP) did it give?
**A.** 3.2 µM

**Q.** And the IC50 (AD169^R [4])?
**A.** 3 µM

**Q.** What about the IC50 (AD169^R [5]) of the same compound?
**A.** 5.8 µM

**Q.** What about the IC50 (TB40/E [6]) of the same compound?
**A.** ~4.5 µM

**Q.** And the IC50 (TB40/E [7])?
**A.** ~4.5 µM

**Q.** `C[C@@H]1O[C@@H](O[C@H]2CC[C@]3(C=O)[C@H]4CC[C@]5(C)[C@@H](C6=CC(=O)OC6)CC[C@]5(O)[C@@H]4CC[C@]3(O)C2)[C@H](O)[C@H](O)[C@H]1O` [convallatoxin] was tested. Which “IE1 expression (Western blot)” value (CMV IE1 protein) did it give?
**A.** inhibited IE1 expression

**Q.** heparin [reference compound] was tested. Which “virus infection, compound present during infection” value (AD169^R [2]) did it give?
**A.** significantly inhibited virus during infection
